Test results published in US7786141B2 (Vertex Pharmaceuticals Incorporated, priority 2004, dated 2010).

What was measured:
[1] = molecular target: T1, M1 muscarinic receptor (Homo sapiens, UniProt P11229); experiment: Functional mobilization of intracellular calcium (FLIPR) in M1-CHO cells; type: cell-based; conditions: Table 4; for Emax: 100% efficacy is the maximum response obtained with the Carbachol control; for M1 Activity: modulating M1 receptor
T1 construct: expressed in transfected cells; host or cells: CHO (M1-CHO)
T1 sequence (P11229 1-460): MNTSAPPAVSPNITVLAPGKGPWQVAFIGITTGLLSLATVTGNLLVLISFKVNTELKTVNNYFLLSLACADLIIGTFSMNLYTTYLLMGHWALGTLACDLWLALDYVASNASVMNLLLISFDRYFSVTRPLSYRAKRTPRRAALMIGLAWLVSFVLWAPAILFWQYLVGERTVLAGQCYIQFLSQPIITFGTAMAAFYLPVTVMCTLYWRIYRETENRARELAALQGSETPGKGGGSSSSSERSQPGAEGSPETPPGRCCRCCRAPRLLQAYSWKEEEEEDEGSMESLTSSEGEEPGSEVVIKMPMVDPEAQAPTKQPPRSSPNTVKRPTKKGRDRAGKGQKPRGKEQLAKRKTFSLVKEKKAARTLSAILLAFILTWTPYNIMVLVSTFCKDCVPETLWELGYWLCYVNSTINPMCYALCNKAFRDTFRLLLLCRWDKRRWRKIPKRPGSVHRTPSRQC
How it was run: (§1)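 Two modes: direct compound addition for agonism, or 15 min compound pre-incubation (or co-application) before carbachol at EC80 for inhibition. Calcium signal from Fluo-3 AM or Calcium 3 dye in CHO cells, 1 mM probenecid, pH 7.4, read 60 sec at 488/540 nm; DMSO 0.5% final.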

[2] = molecular target: T2, M4 muscarinic receptor (Homo sapiens, UniProt P08173); experiment: Functional mobilization of intracellular calcium (FLIPR) in M4-CHO cells; type: cell-based; conditions: Table 4; for Emax: 100% efficacy is the maximum response obtained with the Carbachol control; for M4 Activity: modulating M4 receptor
T2 construct: expressed in transfected cells; host or cells: CHO (M4-CHO)
T2 sequence (P08173 1-479): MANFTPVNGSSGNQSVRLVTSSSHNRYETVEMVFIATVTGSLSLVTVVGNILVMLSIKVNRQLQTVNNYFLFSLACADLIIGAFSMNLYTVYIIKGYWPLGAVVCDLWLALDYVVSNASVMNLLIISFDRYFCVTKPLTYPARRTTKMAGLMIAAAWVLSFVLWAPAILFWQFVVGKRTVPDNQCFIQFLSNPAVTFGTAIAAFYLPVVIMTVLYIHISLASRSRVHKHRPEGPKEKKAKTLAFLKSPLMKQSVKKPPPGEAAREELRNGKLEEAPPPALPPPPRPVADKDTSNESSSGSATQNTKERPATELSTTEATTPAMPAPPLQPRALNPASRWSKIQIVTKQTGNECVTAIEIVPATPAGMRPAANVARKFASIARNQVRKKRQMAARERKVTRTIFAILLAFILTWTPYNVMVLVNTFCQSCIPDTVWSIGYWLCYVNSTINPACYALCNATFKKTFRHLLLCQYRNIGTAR
How it was run: as §1

Compound | Emax [1] | M1 Activity [1] | Emax [2] | M4 Activity [2]
CCOC(=O)N1C2CCC1CC(N1CCC3(CC1)CN(C(C)=O)c1ccc(OC(F)(F)F)cc13)C2 (stereo not shown) [compound 466] | 25 to 100% | xxx (activity was measured to be less than 2.0 μM) | 25 to 100% | xxx (activity was measured to be less than 2.0 μM)
CCOC(=O)N1CCC(N2CCC3(CC2)CN(C(C)=O)c2c(-c4cccc(OC)c4)cccc23)CC1 [compound 467] | 25 to 100% | xx (activity was measured to be between 2.0 μM and 5.0 μM) | 25 to 100% | xx (activity was measured to be between 2.0 μM and 5.0 μM)
CN(C)C(=O)N[C@H]1CCC2(CCN(C3CC4CCC(C4)C3)CC2)c2ccccc21 (stereo partly shown) [compound 468] | 25 to 100% | xx (activity was measured to be between 2.0 μM and 5.0 μM) | 25 to 100% | xxx (activity was measured to be less than 2.0 μM)
CCCN1CC2(CCN(C3CCN(C(=O)OCC)CC3)CC2)c2cc(F)ccc21 [compound 469] | 25 to 100% | xxx (activity was measured to be less than 2.0 μM) | 25 to 100% | xxx (activity was measured to be less than 2.0 μM)
Cc1ccc2c(c1)C(=O)CC21CCN(CC2C[C@H]3CC[C@H]2C3)CC1 (stereo partly shown) [compound 470] | 25 to 100% | xx (activity was measured to be between 2.0 μM and 5.0 μM) | 25 to 100% | xx (activity was measured to be between 2.0 μM and 5.0 μM)
CC(=O)N1CC2(CCN(C3CCN(c4nc(C)cs4)CC3)CC2)c2ccccc21 [compound 471] | 25 to 100% | xx (activity was measured to be between 2.0 μM and 5.0 μM) | 25 to 100% | xx (activity was measured to be between 2.0 μM and 5.0 μM)
CCOC(=O)N1CCC(N2CCC3(CC2)CN(C2CCC(=O)CC2)c2ccccc23)CC1 [compound 472] | > 100% | xxx (activity was measured to be less than 2.0 μM) | 25 to 100% | xxx (activity was measured to be less than 2.0 μM)
CCOC(=O)N1CCC(N2CCCC3(CC2)CN(C(C)=O)c2ccc(F)cc23)C1 (stereo not shown) [compound 473] | 25 to 100% | x (activity was measured to be greater than 5.0 μM) | < 25% | x (activity was measured to be greater than 5.0 μM)
COCCN1CCC(N2CCC3(CC2)CN(C(C)=O)c2ccc(F)cc23)CC1 [compound 474] | < 25% | x (activity was measured to be greater than 5.0 μM) | < 25% | x (activity was measured to be greater than 5.0 μM)
CC(=O)N1CC2(CCN(C3CC4CCC(C3)N4C(=O)OCC(C)(C)C)CC2)c2ccccc21 (stereo not shown) [compound 476] | < 25% | x (activity was measured to be greater than 5.0 μM) | < 25% | x (activity was measured to be greater than 5.0 μM)
CCCCc1cncc(N2CCC(N3CCC4(CC3)CN(C(C)=O)c3ccccc34)CC2)n1 [compound 477] | < 25% | x (activity was measured to be greater than 5.0 μM) | < 25% | x (activity was measured to be greater than 5.0 μM)
CCCOC(=O)N1CC[C@@H](CN2CCC3(CC2)CN(C(C)=O)c2ccccc23)C1 [compound 478] | < 25% | x (activity was measured to be greater than 5.0 μM) | < 25% | x (activity was measured to be greater than 5.0 μM)
CC#CC(C)OC(=O)N1CC[C@@H](CN2CCC3(CC2)CN(C(=O)N(C)C)c2ccc(F)cc23)C1 (stereo partly shown) [compound 479] | 25 to 100% | xxx (activity was measured to be less than 2.0 μM) | < 25% | xxx (activity was measured to be less than 2.0 μM)
CC(=O)N[C@H]1CC2(CCN(CC(=O)N3CCOCC3)CC2)c2ccccc21 [compound 480] | < 25% | x (activity was measured to be greater than 5.0 μM) | < 25% | x (activity was measured to be greater than 5.0 μM)
CCC#CCOC(=O)N1CC[C@@H](CN2CCC3(CC2)CN(C(C)=O)c2ccccc23)C1 [compound 481] | 25 to 100% | xxx (activity was measured to be less than 2.0 μM) | 25 to 100% | xxx (activity was measured to be less than 2.0 μM)
CCOC(=O)N1CC[C@H](CN2CCC3(CC2)CN(C(C)=O)c2ccccc23)C1 [compound 482] | 25 to 100% | xxx (activity was measured to be less than 2.0 μM) | 25 to 100% | xxx (activity was measured to be less than 2.0 μM)
CC1(C)C(=O)c2ccccc2C12CCN([C@H]1C[C@@H]3CC[C@@H]1C3)CC2 [compound 483] | < 25% | x (activity was measured to be greater than 5.0 μM) | < 25% | x (activity was measured to be greater than 5.0 μM)
CCOC(=O)N1C2CCC1CC(N1CCC3(CCCc4ccccc43)CC1)C2 (stereo not shown) [compound 484] | 25 to 100% | xxx (activity was measured to be less than 2.0 μM) | 25 to 100% | xxx (activity was measured to be less than 2.0 μM)
CC#CC(C)OC(=O)N1CC[C@H](CN2CCC3(CC2)CN(C(=O)N(C)C)c2ccc(F)cc23)C1 (stereo partly shown) [compound 485] | 25 to 100% | xx (activity was measured to be between 2.0 μM and 5.0 μM) | < 25% | xxx (activity was measured to be less than 2.0 μM)
CC(=O)N[C@@H]1CCC2(CCN(CC3CC4C=CC3C4)CC2)c2ccccc21 (stereo partly shown) [compound 486] | < 25% | x (activity was measured to be greater than 5.0 μM) | 25 to 100% | xxx (activity was measured to be less than 2.0 μM)
O=C(N[C@H]1CC2(CCN([C@@H]3C[C@H]4CC[C@@H]3C4)CC2)c2ccccc21)N1CCCC1 [compound 487] | < 25% | x (activity was measured to be greater than 5.0 μM) | 25 to 100% | xxx (activity was measured to be less than 2.0 μM)
O=C(O)C1CC2(CCN(C3CCCCCC3)CC2)c2ccccc21 (stereo not shown) [compound 488] | 25 to 100% | x (activity was measured to be greater than 5.0 μM) | 25 to 100% | x (activity was measured to be greater than 5.0 μM)
CC(=O)N1CC2(CCN(C3CCN(c4cncc(C)n4)CC3)CC2)c2ccccc21 [compound 489] | 25 to 100% | xxx (activity was measured to be less than 2.0 μM) | 25 to 100% | xxx (activity was measured to be less than 2.0 μM)
CCC(=O)N[C@H]1CC2(CCN([C@@H]3C[C@@H]4CC[C@@H]3C4)CC2)c2ccccc21 [compound 490] | 25 to 100% | x (activity was measured to be greater than 5.0 μM) | > 100% | xxx (activity was measured to be less than 2.0 μM)
CCOC(=O)N1CCC(N2CCC3(CC2)CN(C(C)=O)c2c(-c4ccc(C(C)=O)cc4)cccc23)CC1 [compound 491] | 25 to 100% | xx (activity was measured to be between 2.0 μM and 5.0 μM) | < 25% | xx (activity was measured to be between 2.0 μM and 5.0 μM)
CN(C)C(=O)N1CC2(CCN(C3CCN(C(=O)CCC#N)CC3)CC2)c2cc(F)ccc21 [compound 492] | 25 to 100% | x (activity was measured to be greater than 5.0 μM) | < 25% | x (activity was measured to be greater than 5.0 μM)
C#CCOC(=O)N1CC[C@H](CN2CCC3(CC2)CN(C(C)=O)c2ccccc23)C1 [compound 493] | > 100% | xxx (activity was measured to be less than 2.0 μM) | > 100% | xxx (activity was measured to be less than 2.0 μM)
CCOC(=O)N1CCC(N2CCC3(CC2)CN(C(=O)NC(C)C)c2ccccc23)CC1 [compound 494] | 25 to 100% | xx (activity was measured to be between 2.0 μM and 5.0 μM) | 25 to 100% | xxx (activity was measured to be less than 2.0 μM)
